Earlier results, collected in paper PMC8583936, “Machine Learning Assisted Approach for Finding Novel High Activity Agonists of Human Ectopic Olfactory Receptors” (International Journal of Molecular Sciences, 2021).
Where a name gives a salt, the structure may show the parent alone. Read-outs that look alike come from different tables or passages of the source.

Key:
OR2W1 = target: T1, OR2W1 (Homo sapiens, UniProt Q9Y3N9); settings: cited from earlier work
T1 sequence (Q9Y3N9 1-320): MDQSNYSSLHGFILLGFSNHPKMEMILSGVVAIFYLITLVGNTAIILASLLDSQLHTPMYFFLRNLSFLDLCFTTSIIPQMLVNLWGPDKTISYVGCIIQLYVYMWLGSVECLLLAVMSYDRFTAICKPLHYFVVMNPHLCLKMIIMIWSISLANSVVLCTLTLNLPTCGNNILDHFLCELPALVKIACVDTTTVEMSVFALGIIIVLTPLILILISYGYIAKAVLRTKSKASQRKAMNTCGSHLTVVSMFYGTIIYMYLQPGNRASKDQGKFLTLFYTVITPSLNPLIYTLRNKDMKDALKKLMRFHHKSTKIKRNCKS

OR1A1 = target: T2, OR1A1 (Homo sapiens, UniProt Q9P1Q5); settings: cited from earlier work
T2 sequence (Q9P1Q5 1-309): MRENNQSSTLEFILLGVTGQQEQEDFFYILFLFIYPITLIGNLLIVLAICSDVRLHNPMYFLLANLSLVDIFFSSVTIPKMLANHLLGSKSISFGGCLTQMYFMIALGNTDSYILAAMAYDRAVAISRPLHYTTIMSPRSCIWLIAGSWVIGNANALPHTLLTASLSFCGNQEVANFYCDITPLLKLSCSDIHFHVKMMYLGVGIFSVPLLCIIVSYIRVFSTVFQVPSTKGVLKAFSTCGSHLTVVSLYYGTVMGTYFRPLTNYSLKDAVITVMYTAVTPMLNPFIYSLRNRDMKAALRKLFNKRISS

[1] = Table S2, ref Supplement references [2]-[12] as printed after each odorant name
[2] = Table S1, ref Supplement references [1]-[9] as printed after each odorant name

Row | Compound | Class (agonist / non-agonist / antagonist / conflicting info.) for OR2W1 (OR2W1; [1]) | Class (agonist / non-agonist / conflicting info.) for OR1A1 (OR1A1; [2]) | Class (agonist / non-agonist / antagonist / conflicting info.) for OR2W1 (OR2W1) | Class (agonist / non-agonist / conflicting info.) for OR1A1 (OR1A1)
1 | CC(C)CCCCCCCCCCC=O [12-methyltridecanal] | Non-agonist | Non-agonist | – | –
2 | COc1ccc(C)cc1O [2-Methoxy-5-methylphenol] | Non-agonist | Non-agonist | – | –
3 | CCCCC/C=C\CCC=O [Z-4-decenal] | Non-agonist | Conflicting info. | – | –
4 | CCCCCCCCC=CC=O [2-undecenal] | Non-agonist | Non-agonist | – | –
5 | (+)-alpha-Pinene | Non-agonist | Non-agonist | – | –
6 | CCC(C)c1nccnc1OC (stereo not drawn) [3-secbutyl-2-methoxypyrazine] | Non-agonist | Non-agonist | – | –
7 | C=CCSC [Allyl methyl sulfide] | Non-agonist | Non-agonist | – | –
8 | CC(C)=CCC/C(C)=C/CO [Geraniol] | Conflicting info. | Conflicting info. | – | –
9 | CC(C)C=O [Isobutylraldehyde] | Non-agonist | Non-agonist | – | –
10 | CCCSSCCC [Propyl disulfide] | Non-agonist | Non-agonist | – | –
11 | CCCCCCCCCS [Nonanethiol] | Agonist | Agonist | – | –
12 | CCCCC1OC(=O)CC1C (stereo not drawn) [5-Butyl-4-methyloxolan-2-one] | Non-agonist | Non-agonist | – | –
13 | CCCCCC(=O)O [Hexanoic acid] | – | – | Non-agonist | Non-agonist
14 | O=CCc1ccccc1 [Phenyl acetaldehyde] | Non-agonist | Non-agonist | – | –
15 | C=CCc1ccccc1 [Allyl benzene] | – | – | Non-agonist | Non-agonist
16 | CCCCC1CCC(=O)O1 (racemic) [(R/S)-γ-Octalactone] | Agonist | Non-agonist | – | –
17 | CCCCCC=O [Hexanal] | Conflicting info. | Non-agonist | – | –
18 | CC(=O)OCCC(C)C [Isoamyl acetate] | Agonist | Non-agonist | – | –
19 | CCCC(S)CCOC(C)=O (stereo not drawn) [3-Mercaptohexyl acetate] | Agonist | Agonist | – | –
20 | C=CCSSCC=C [Allyl disulfide] | – | – | Non-agonist | Non-agonist
21 | CC(C)CN [Isobutyl amine] | Antagonist | Conflicting info. | – | –
22 | CCCCCC/C=C/C=O [2-enonenal] | Non-agonist | Non-agonist | – | –
23 | CCOC(C)=O [Ethyl acetate] | Non-agonist | Non-agonist | – | –
24 | CCOC(=O)Cc1ccccc1 [Ethylphenyl acetate] | – | – | Non-agonist | Agonist
25 | CC(=O)Oc1ccccc1 [Phenyl acetate] | Non-agonist | Non-agonist | – | –
26 | c1ccc2ncccc2c1 [Quinoline] | Non-agonist | Agonist | – | –
27 | CCCCCC1=C(C)CCC1=O [Dihydrojasmone] | Agonist | Agonist | – | –

Row | Compound | Class (agonist / non-agonist / antagonist / conflicting info.) for OR2W1 (OR2W1; [1]) | Class (agonist / non-agonist / conflicting info.) for OR1A1 (OR1A1; [2]) | Class (agonist / non-agonist / antagonist / conflicting info.) for OR2W1 (OR2W1) | Class (agonist / non-agonist / conflicting info.) for OR1A1 (OR1A1)
28 | CCOC(=O)c1ccccc1 [Ethyl benzoate] | – | – | Non-agonist | Non-agonist
29 | CCCCCCCCO [Octanol] | Agonist | Conflicting info. | – | –
30 | CCC(S)C(C)CO (stereo not drawn) [2-Methyl-3-sulfanylpentan-1-ol] | Non-agonist | Non-agonist | – | –
31 | C=C1CCC2CC1C2(C)C (single isomer, unassigned; (-)) [(-)-beta-Pinene] | Non-agonist | Non-agonist | – | –
32 | Cc1occc1S [2-Methyl-3-furanthiol] | Non-agonist | Non-agonist | – | –
33 | O=C(O)CS [Thioglycolic acid] | Non-agonist | Non-agonist | – | –
34 | CCOC(=O)CC(C)C [Ethyl isovalerate] | Non-agonist | Non-agonist | – | –
35 | CCCCCCCC1CCCC(=O)O1 (stereo not drawn) [Delta-dodecalactone] | Non-agonist | Non-agonist | – | –
36 | CCCCCc1ccccn1 [2-pentylpyridine] | Agonist | Agonist | – | –
37 | CC/C=C\CC/C=C/C=O [E,Z-2,6-nonadienal] | Non-agonist | Non-agonist | – | –
38 | C=CCc1ccc(OC)c(OC)c1 [Eugenol methyl ether] | Non-agonist | Conflicting info. | – | –
39 | CCCCCCCCS [Octanethiol] | – | – | Agonist | Conflicting info.
40 | CC(C)(S)CCOC=O [3-Mercapto-3-methylbutyl formate] | Non-agonist | Non-agonist | – | –
41 | CCOc1nccs1 [2-ethoxythiazole] | Agonist | Non-agonist | – | –
42 | CC(C=O)Cc1ccc2c(c1)OCO2 (stereo not drawn) [Helional] | – | – | Agonist | Agonist
43 | C/C=C/c1ccc(OC)cc1 [Trans-anethole] | Agonist | Agonist | – | –
44 | COc1cccc(OC)c1O [2,6-dimethoxyphenol] | Non-agonist | Non-agonist | – | –
45 | COC(=O)C=Cc1ccccc1 [Methyl cinnamate] | Agonist | Non-agonist | – | –
46 | CCC(=O)C(=O)CC [3,4-hexanedione] | – | – | Agonist | Non-agonist
47 | CCCCCCCC(=O)O [Octanoic acid] | – | – | Conflicting info. | Non-agonist
48 | CCCCCC(=O)OCC [Ethyl hexanoate] | Non-agonist | Agonist | – | –
49 | (-)-alpha-Terpineol | Non-agonist | Non-agonist | – | –
50 | CC/C=C\CC/C=C/CO [(2E,6Z)-Nona-2,6-dien-1-ol] | Non-agonist | Non-agonist | – | –
51 | C=Cc1ccc(O)cc1 [4-ethenylphenol] | Non-agonist | Non-agonist | – | –
52 | Cc1cnc(C)c(C)n1 [Trimethyl pyrazine] | Non-agonist | Non-agonist | – | –
53 | CCCCCC1CCC(=O)O1 (stereo not drawn) [5-Pentyloxolan-2-one] | Non-agonist | Agonist | – | –
54 | CCCCCO [Pentanol] | Conflicting info. | Conflicting info. | – | –
